The test system of assay [1] is FKBP-14.6. Description: Saturation binding of [^3 H]-dihydro FK-506 (LH-20 assay, Scatchard and Hill plots). Set-up: species or system calf. Conditions: for Kd: saturation, eight concentrations of labeled FK-506 (0.25-12 nM), read-out: Kd, single high affinity binding site. As for the experimental part:
(§1) Binding of [^3 H]-dihydro FK-506 to protein fractions was assessed using the LH-20 assay as described by Handschumacher et al., Science, 226:544 (1984). Briefly, in a final volume of 250 μl, labeled FK-506 (2-5.35 nM in EtOH) and 2-5 μg protein (200 μl) were preliminarily incubated, and the competition reaction begun by the addition of varying concentrations of unlabeled FK-506 or rapamycin. Following 20 minutes at room temperature, a 200 μl aliquot of the reaction mixture was filtered through a 1.8 mL bed-volume Sephadex LH-20 column equilibrated with 20 mM Tris buffer, pH 7.2, containing 5 mM 2-mercaptoethanol and 0.05 % NAN3. Elution with five 250 μL portions of the assay buffer separated protein-bound [^3 H]-dihydro FK-506 from free labeled drug (Sjovall et al., in Giddlings et al., Advances in Chromatography, Marcel Dekker, Inc., N.Y., vol. 6, pp. 119-170 (1968)). Radioactivity in the 1.25 mL eluate was measured by liquid scintillation spectrometry (Optima Gold Scintillation cocktail, Packard Chemicals, Meriden, Conn.) operating at 59% efficiency. Non-specific binding was estimated by the addition of 1 μM unlabeled FK-506, which displaced ≥95% of the bound radioligand from binding sites.
To obtain binding site information for the FKBP-14.6 protein, Scatchard plots were obtained in saturation experiments using eight concentrations of labeled FK-506 (0.25-12 nM) in triplicate (FIG. 4A). In FIG. 4A, specific binding is shown by (-.cndot.-.cndot.-) and non-specific binding by (- - -). Data were analyzed with the EBDA and Ligand Corporation programs.

The subject of assay [2] is FKBP-14.6. Description: Competition binding against [^3 H]-dihydro FK-506 (LH-20 assay). Set-up: species or system calf. Conditions: for Kd: 6 nM [^3 H]-dihydro FK-506, rapamycin 0.1 nM-1 μM, 0.2% Tween-20, 50% receptor occupation. The method, then: as §1
To determine if rapamycin interacted with FK-506's binding site on FKBP-14.6, competition studies were carried out using 6 nM [^3 H]-dihydro FK-506 and 8 concentrations of rapamycin (0.1 nM-1 μM) in a buffer containing 0.2% Tween-20. Unlabeled FK-506 (1 μM) was used to define nonspecific binding.

Turning to `[3H]CC([3H])C[C@@H]1/C=C(\C)C[C@H](C)C[C@H](OC)[C@H]2O[C@@](O)(C(=O)C(=O)N3CCCC[C@H]3C(=O)O[C@H](/C(C)=C/[C@@H]3CC[C@@H](O)[C@H](OC)C3)[C@H](C)[C@@H](O)CC1=O)[C@H](C)C[C@@H]2OC` (some centres unmarked) [[^3 H]-dihydro FK-506], the Hill coefficients entry with FKBP-14.6 [1] (saturation experiments, single class of binding sites) is listed as “near unity”.

In general, Kd refers to the equilibrium constant for the complex coming apart. With `CO[C@H]1C[C@@H]2CC[C@@H](C)[C@@](O)(O2)C(=O)C(=O)N2CCCC[C@H]2C(=O)O[C@H]([C@H](C)C[C@@H]2CC[C@@H](O)[C@H](OC)C2)CC(=O)[C@H](C)/C=C(\C)[C@@H](O)[C@@H](OC)C(=O)[C@H](C)C[C@H](C)/C=C/C=C/C=C/1C` [Rapamycin], the “displacement of [^3 H]-dihydro FK-506 (manner)” value with FKBP-14.6 [2] (6 nM [^3 H]-dihydro FK-506, 8 concentrations of rapamycin) is recorded as “biphasic manner”. Moreover, the Kd came out at 0.023 nM on FKBP-14.6 [2] (read-out: Kd, high affinity binding site) and 226 nM at FKBP-14.6 [2] (read-out: Kd, low affinity binding site).

With `C=CC[C@@H]1/C=C(\C)C[C@H](C)C[C@H](OC)[C@H]2O[C@@](O)(C(=O)C(=O)N3CCCC[C@H]3C(=O)O[C@H](/C(C)=C/[C@@H]3CC[C@@H](O)[C@H](OC)C3)[C@H](C)[C@@H](O)CC1=O)[C@H](C)C[C@@H]2OC` [FK-506], the “binding site Bmax” value in the assay with FKBP-14.6 [1] (Scatchard analysis, purified 14.6 kDa protein) is “about 67 nmoles/mg protein”. In the assay on FKBP-14.6 [2] (1 μM unlabeled FK-506, 20 min), the “bound radioligand displaced from binding sites” value is on record as no less than 95%.

In the case of `CCC[C@@H]1/C=C(\C)C[C@H](C)C[C@H](OC)[C@H]2O[C@@](O)(C(=O)C(=O)N3CCCC[C@H]3C(=O)O[C@H](/C(C)=C/[C@@H]3CC[C@@H](O)[C@H](OC)C3)[C@H](C)[C@@H](O)CC1=O)[C@H](C)C[C@@H]2OC` [[^3 H]-dihydro FK-506], the Kd at FKBP-14.6 [1] (purified 14.6 kDa protein, listed as [^3 H]-FK-506) was roughly 1.77 nM; on FKBP-14.6 [1] (purified 14.6 kDa protein), 1.77 nM.
